Results published in ChEMBL document CHEMBL4665641, “Lead optimization and efficacy evaluation of quinazoline-based BET family inhibitors for potential treatment of cancer and inflammatory diseases” (Bioorg Med Chem Lett, 2019).

Assays:
Mus musculus [1] = test: Antiinflammatory activity in collagen/complete freund's adjuvant-induced arthritis DBA/1 mouse model assessed as IL-6 level in rear right paw at 1 mg/kg, po administered via gavage starting from day 21 to day 41 post collagen/CFA challenge and measured on day 42 measured per mg protein (reference value: 180.7 pg); assay type: functional; details: time 21 day
Mus musculus [2] = test: Antiinflammatory activity in collagen/complete freund's adjuvant-induced arthritis DBA/1 mouse model assessed as IP-10 level in rear right paw at 1 mg/kg, po administered via gavage starting from day 21 to day 41 post collagen/CFA challenge and measured on day 42 measured per mg protein (reference value: 6.23 pg); assay type: functional; details: time 21 day
Mus musculus [3] = test: Antiinflammatory activity in collagen/complete freund's adjuvant-induced arthritis DBA/1 mouse model assessed as IL-1 beta level in rear right paw at 1 mg/kg, po administered via gavage starting from day 21 to day 41 post collagen/CFA challenge and measured on day 42 measured per mg protein (reference value: 3.15 pg); assay type: functional; details: time 21 day
Mus musculus [4] = test: Antiinflammatory activity in collagen/complete freund's adjuvant-induced arthritis DBA/1 mouse model assessed as MCP-1 level in rear right paw at 1 mg/kg, po administered via gavage starting from day 21 to day 41 post collagen/CFA challenge and measured on day 42 measured per mg protein (reference value: 126.24 pg); assay type: functional; details: time 21 day
[5] = Toxicity in collagen/CFA induced arthritis DBA/1 mouse model assessed as body weight loss at 1 mg/kg, po administered via gavage starting from day 21 to day 41 post collagen/CFA challenge and measured on day 0, 18, 21 followed by three times weekly up to 42 days; assay type: organism-based; details: in vivo, 504 h, time 21 day
[6] = Toxicity in collagen/CFA induced arthritis DBA/1 mouse model assessed as body weight at 1 mg/kg, po administered via gavage starting from day 21 to day 41 post collagen/CFA challenge and measured on day 21 relative to initial weight (reference value: 94.96%); assay type: organism-based; details: in vivo, 504 h, time 21 day
Mus musculus [7] = test: Antiinflammatory activity in collagen/complete freund's adjuvant-induced arthritis DBA/1 mouse model assessed as IL-2 level in rear right paw at 1 mg/kg, po administered via gavage starting from day 21 to day 41 post collagen/CFA challenge and measured on day 42 measured per mg protein (reference value: 0.2 pg); assay type: functional; details: time 21 day
Mus musculus [8] = test: Antiinflammatory activity in collagen/complete freund's adjuvant-induced arthritis DBA/1 mouse model assessed as VEGF level in rear right paw at 1 mg/kg, po administered via gavage starting from day 21 to day 41 post collagen/CFA challenge and measured on day 42 measured per mg protein (reference value: 0.98 pg); assay type: functional; details: time 21 day
Mus musculus [9] = test: Antiinflammatory activity in collagen/complete freund's adjuvant-induced arthritis DBA/1 mouse model assessed as TNF-alpha level in rear right paw at 1 mg/kg, po administered via gavage starting from day 21 to day 41 post collagen/CFA challenge and measured on day 42 measured per mg protein (reference value: 0.88 pg); assay type: functional; details: time 21 day
Mus musculus [10] = test: Antiarthritic activity in collagen/complete freund's adjuvant-induced arthritis DBA/1 mouse model assessed as paw thickness at 1 mg/kg, po administered via gavage starting from day 21 to day 41 post collagen/CFA challenge and measured on day 21 by caliper analysis (reference value: 2.48 millimeter); assay type: functional; details: time 21 day
Mus musculus [11] = test: Antiinflammatory activity in collagen/complete freund's adjuvant-induced arthritis DBA/1 mouse model assessed as IFN-gamma level in rear right paw at 1 mg/kg, po administered via gavage starting from day 21 to day 41 post collagen/CFA challenge and measured on day 42 measured per mg protein (reference value: 0.78 pg); assay type: functional; details: time 21 day
[12] = Drug uptake in tumor tissue of CB17 SCID mouse xenografted with human Kasumi-1 cells at 10 mg/kg, po QD for 25 days and measured after 24 hrs post last dose; assay type: ADME, organism-based, Neoplasm; details: time 25 day, read-out: Drug uptake
[13] = Cmax in CD-1 mouse at 2 mg/kg, iv measured after 5 mins; assay type: ADME, organism-based; parameters: route intravenous, dose 2 mg/kg; details: in vivo
[14] = AUC(0 to infinity) in CD-1 mouse at 10 mg/kg, po; assay type: ADME, organism-based; parameters: route oral, time infinity, dose 10 mg/kg; details: in vivo
[15] = Half life in CD-1 mouse at 2 mg/kg, iv; assay type: ADME, organism-based; details: in vivo
[16] = Cmax in CD-1 mouse at 10 mg/kg, po; assay type: ADME, organism-based; parameters: route oral, dose 10 mg/kg; details: CD-1, mouse, in vivo, read-out: Cmax
[17] = Stability in mouse liver microsomes assessed as half life; assay type: ADME, Microsome
Kasumi 1 [18] = test: Antitumor activity against human Kasumi-1 cells xenografted in CB17 SCID mouse assessed as tumor volume at 40 mg/kg, po QD for 25 days (reference value: 2189 +/- 604 mm3); assay type: functional; details: time 25 day
Kasumi 1 [19] = test: Antiproliferative activity against human Kasumi-1 cells after 72 hrs by Celltiter-Glo assay; assay type: functional, cell-based; details: Kasumi 1, 72 h
Kasumi 1 [20] = test: Antitumor activity against human Kasumi-1 cells xenografted in CB17 SCID mouse assessed as tumor volume at 10 mg/kg, po QD for 25 days (reference value: 2189 +/- 604 mm3); assay type: functional; details: time 25 day
[21] = Toxicity in CB17 SCID mouse xenografted with human Kasumi-1 cells assessed body weight loss at 10 to 40 mg/kg, po QD for 25 days; assay type: organism-based; details: in vivo, 600 h, dose 10-40 mg/kg, time 25 day
[22] = molecular target: T1, Bromodomain-containing protein 4 (Homo sapiens, UniProt O60885); test: Competitive binding affinity to human partial length BRD4 (BD1,2) (N44 to E460 residues) expressed in bacterial expression system by BROMOscan assay
[23] = molecular target: T1, Bromodomain-containing protein 4; test: Inhibition of human full-length recombinant N-terminal His-tagged BRD4 (2 to 1362 residues) expressed in Sf9 cells using histone H4 peptide containing acetylated lysine residues as substrate preincubated with enzyme for 30 mins followed by incubation with substrate for 30 mins by Alphascreen assay […]
[24] = Stability in human liver microsomes assessed as half life; assay type: ADME, Microsome
MV4-11 = test: Cytotoxicity against human MV4-11 cells assessed as inhibition of cell viability; assay type: functional, cell-based
[25] = Plasma clearance in CD-1 mouse at 2 mg/kg, iv; assay type: ADME, organism-based
[26] = Drug uptake in tumor tissue of CB17 SCID mouse xenografted with human Kasumi-1 cells at 40 mg/kg, po QD for 25 days and measured after 24 hrs post last dose; assay type: ADME, organism-based, Neoplasm; details: time 25 day, read-out: Drug uptake
[27] = Volume of distribution at steady state in CD-1 mouse at 2 mg/kg, iv; assay type: ADME, organism-based; details: in vivo, read-out: Vdss
Kasumi 1 [28] = test: Antitumor activity against human Kasumi-1 cells xenografted in CB17 SCID mouse assessed as inhibition of tumor growth at 10 mg/kg, po QD for 25 days; assay type: functional; details: Kasumi 1, po, 600 h, time 25 day, read-out: TGI
Kasumi 1 [29] = test: Antitumor activity against human Kasumi-1 cells xenografted in CB17 SCID mouse assessed as tumor weight at 10 mg/kg, po administered for 25 days (reference value: 2.57 +/- 0.27 g); assay type: functional; details: time 25 day
Kasumi 1 [30] = test: Antitumor activity against human Kasumi-1 cells xenografted in CB17 SCID mouse assessed as inhibition of tumor growth at 40 mg/kg, po QD for 25 days; assay type: functional; details: Kasumi 1, po, 600 h, time 25 day, read-out: TGI
[31] = Stability in rat liver microsomes assessed as half life; assay type: ADME, Microsome
[32] = Half life in CD-1 mouse at 10 mg/kg, po; assay type: ADME, organism-based; details: in vivo
Kasumi 1 [33] = test: Antitumor activity against human Kasumi-1 cells xenografted in CB17 SCID mouse assessed as tumor weight at 40 mg/kg, po QD for 25 days (reference value: 2.57 +/-0.27 g); assay type: functional; details: time 25 day
[34] = AUC(0 to infinity) in CD-1 mouse at 2 mg/kg, iv; assay type: ADME, organism-based; parameters: time infinity, route intravenous, dose 2 mg/kg; details: CD-1, mouse, in vivo
Kasumi 1 [35] = test: Antitumor activity against human Kasumi-1 cells xenografted in CB17 SCID mouse assessed as tumor volume at 10 mg/kg, po QD for 29 days (reference value: 1734 +/- 220 mm3); assay type: functional; details: time 29 day
Kasumi 1 [36] = test: Antitumor activity against human Kasumi-1 cells xenografted in CB17 SCID mouse assessed as tumor weight at 10 mg/kg, po QD for 29 days (reference value: 2.1+/- 0.3 g); assay type: functional; details: time 29 day
[37] = Toxicity in CB17 SCID mouse xenografted with human Kasumi-1 cells assessed body weight loss at 40 mg/kg, po QD for 25 days; assay type: organism-based; details: in vivo, 600 h, time 25 day
Kasumi 1 [38] = test: Antitumor activity against human Kasumi-1 cells xenografted in CB17 SCID mouse assessed as inhibition of tumor growth at 10 mg/kg, po QD for 29 days; assay type: functional; details: Kasumi 1, po, 696 h, time 29 day, read-out: TGI
[39] = Oral bioavailability in CD-1 mouse at 10 mg/kg; assay type: ADME, organism-based; details: CD-1, mouse, in vivo

SMILES	half-life [15]	Cmax [16]	Activity (Kasumi 1 [18])	Activity (Kasumi 1 [20])	Kd [22]	IC50 [23]	IC50 (MV4-11)	clearance [25]	concentration at 600 h [26]	Vd [27]	Activity (Kasumi 1 [29])	half-life [32]	Activity (Kasumi 1 [33])	AUC(0-inf) [34]	Activity (Kasumi 1 [35])	Activity (Kasumi 1 [36])	also measured
C[C@@H]1C[C@H]2[C@@H]3CCC4=CC(=O)C=C[C@]4(C)[C@@]3(F)[C@@H](O)C[C@]2(C)[C@@]1(O)C(=O)CO [DEXAMETHASONE]																	Activity (Mus musculus [1]): 2.17 pg; Activity (Mus musculus [2]): 0.86 pg; Activity (Mus musculus [3]): 2.32 pg; Activity (Mus musculus [4]): 1.99 pg; Activity [5]: Toxic; Activity [6]: 92.74%; Activity (Mus musculus [7]): 0.63 pg; Activity (Mus musculus [8]): 0.85 pg; Activity (Mus musculus [9]): 0.39 pg; Activity (Mus musculus [10]): 1.53 mm; Activity (Mus musculus [11]): 1.5 pg
Cc1noc(C)c1-c1ccc2nc(-c3cnn(CC(C)(C)O)c3)nc(N3CCOC[C@@H]3C3CC3)c2c1	1.5 h	2040 ng/mL	51 mm3	1001 mm3	230 nM	76 nM	1660 nM	10.1 mL/min/kg	4210 ng/g	1.28 L/kg	1.31 g	1.8 h	0.03 g	3370 ng·h/mL			concentration at 600 h [12]: 303 ng/g; Cmax ([13]; mouse, 5 min): 1940 ng/mL; AUC ([14]; mouse): 15013 ng·h/mL; t1/2 [17]: 1.7 h; IC50 (Kasumi 1 [19]): 520 nM; Activity [21]: Non-Toxic; half-life [24]: 1.77 h; inhibition in vivo at 10 mg/kg (Kasumi 1 [28]): 49.1%; inhibition in vivo at 40 mg/kg (Kasumi 1 [30]): 98.8%; half-life [31]: 0.55 h
CCNC(=O)C[C@@H]1N=C(c2ccc(Cl)cc2)c2cc(OC)ccc2-n2c(C)nnc21 [MOLIBRESIB]			79 mm3	586 mm3					16 ng/g		0.52 g		0.07 g		330 mm3	0.3 g	Activity [37]: Toxic
Cc1cc(-c2ccc3nc(-c4cnn(CC(C)(C)O)c4)nc(N4CCOC[C@@H]4c4ccccc4)c3c2)cn(C)c1=O	2.1 h	2870 ng/mL			23 nM	11 nM	240 nM	3.8 mL/min/kg		0.89 L/kg		2.7 h		9330 ng·h/mL	588 mm3	0.73 g	Cmax ([13]; CD-1, mouse, read-out: Cmax): 2450 ng/mL; inhibition in vivo at 10 mg/kg (Kasumi 1 [38]): 65.1%; AUC(0-inf) ([14]; CD-1, mouse): 39800 ng·h/mL; bioavailability [39]: 85%
